From ChEMBL document CHEMBL1130408, “Repromicin derivatives with potent antibacterial activity against Pasteurella multocida” (1997) come the findings set out here.

The structures appear in SMILES notation. Converted amounts (≈) assume the structure as drawn. Some results are limits rather than exact numbers.

What all share (type): functional
For assay [1], the species on record is Mus musculus. The experiment in a line: Protected dose at which the test compound protects 50% of challenged mice from death owing to the Pasteurella multocida infection. The note with it: read-out: PD50.
In another assay the test system is Pasteurella multocida. Description: Minimum inhibitory concentration required to inhibit Pasteurella multocida 59A006 in vitro.
For assay [2], the species on record is Mus musculus. Description: Protected dose which protects 50% of challenged mice from death owing to the Pasteurella multocida (59A006) infection. The note with it: read-out: PD50.

Usually MIC stands for the least concentration at which growth counts as inhibited. A high value points to a less susceptible organism.

For `CC[C@H]1OC(=O)C[C@@H](O)[C@H](C)[C@@H](O[C@@H]2O[C@H](C)[C@@H](O)[C@@H](N(C)C)[C@H]2O)[C@@H](CC=O)C[C@@H](C)C(=O)/C=C/C(C)=C/[C@@H]1CO[C@@H]1O[C@H](C)[C@@H](O)[C@@H](OC)[C@H]1OC`, the ED50 in the assay listed under Mus musculus [1] worked out at 66 mg/kg. The same molecule had an MIC in the assay on Pasteurella multocida of 3.13 µg/mL (≈ 4.05 µM).
Taken in the same sequence, the figures for `CC[C@H]1OC(=O)C[C@@H](O)[C@H](C)[C@@H](O[C@@H]2O[C@H](C)[C@@H](O)[C@H](N(C)C)[C@H]2O)[C@@H](CCN2C[C@H](C)C[C@H](C)C2)C[C@@H](C)C(=O)/C=C/C(C)=C/[C@@H]1CO[C@@H]1O[C@H](C)[C@@H](O)[C@@H](OC)[C@H]1OC` [TILMICOSIN] were 99 mg/kg and 1.56 µg/mL (≈ 1.79 µM).
As to `CC[C@H]1OC(=O)CC(O)[C@H](C)[C@@H](O[C@@H]2O[C@H](C)C[C@H](N(C)C)[C@H]2O)[C@@H](CCN(C)CCN(C)C(=O)[C@H](C)N)C[C@@H](C)C(=O)/C=C/C(C)=C/[C@@H]1C` (stereo partly drawn), the ED50 in the assay filed under Mus musculus [2] amounted to 12 mg/kg. In addition, the MIC against Pasteurella multocida came to 0.05 µg/mL (≈ 0.0705 µM).
Taken in the same sequence, the figures for `CC[C@H]1OC(=O)CC(O)[C@H](C)[C@@H](O[C@@H]2O[C@H](C)C[C@H](N(C)C)[C@H]2O)[C@@H](CCNC2C(O)CCCC2O)C[C@@H](C)C(=O)/C=C/C(C)=C/[C@@H]1C` (stereo partly drawn) were 11 mg/kg and 0.2 µg/mL (≈ 0.294 µM).
Taken in the same sequence, the figures for `CC[C@H]1OC(=O)CC(O)[C@H](C)[C@@H](O[C@@H]2O[C@H](C)C[C@H](N(C)C)[C@H]2O)[C@@H](CCN(CCCN(C)C)C(=O)[C@H](C)N)C[C@@H](C)C(=O)/C=C/C(C)=C/[C@@H]1C` (stereo partly drawn) were 3 mg/kg and 0.39 µg/mL (≈ 0.539 µM).
Taken in the same sequence, the figures for `CC[C@H]1OC(=O)CC(O)[C@H](C)[C@@H](O[C@@H]2O[C@H](C)C[C@H](N(C)C)[C@H]2O)[C@@H](CCNC(CO)CO)C[C@@H](C)C(=O)/C=C/C(C)=C/[C@@H]1C` (stereo partly drawn) were 31 mg/kg and 0.39 µg/mL (≈ 0.609 µM).
In the case of `CC[C@H]1OC(=O)CC(O)[C@H](C)[C@@H](O[C@@H]2O[C@H](C)C[C@H](N(C)C)[C@H]2O)[C@@H](CCN2CCCCCC2)C[C@@H](C)C(=O)/C=C/C(C)=C/[C@@H]1C` (stereo partly drawn), the ED50 in the assay filed under Mus musculus [2] is more than 200 mg/kg. The molecule also returned an MIC against Pasteurella multocida of 0.1 µg/mL (≈ 0.154 µM).
For the molecule `CCC1OC(=O)CC(O)C(C)C(O[C@@H]2O[C@H](C)C[C@H](N(C)C)[C@H]2O)C(CC=O)CC(C)C(=O)/C=C/C(C)=C/C1C` (stereo partly drawn), the ED50 in the assay filed under Mus musculus [2] was more than 200 mg/kg. Also, in the assay with Pasteurella multocida, the lowest concentration to inhibit growth (MIC) was 0.39 µg/mL (≈ 0.689 µM).
Taken in the same sequence, the figures for `CC[C@H]1OC(=O)C[C@@H](O)[C@H](C)[C@@H](O[C@@H]2O[C@H](C)C[C@H](N(C)C)[C@H]2O)[C@@H](CC=O)C[C@@H](C)C(=O)/C=C/[C@]2(C)O[C@H]2[C@@H]1C` [ROSARAMICIN] were 68 mg/kg and 0.2 µg/mL (≈ 0.344 µM).
For `CC[C@H]1OC(=O)CC(O)[C@H](C)[C@@H](O[C@@H]2O[C@H](C)C[C@H](N(C)C)[C@H]2O)[C@@H](CCN(CCO)CCO)C[C@@H](C)C(=O)/C=C/C(C)=C/[C@@H]1C` (stereo partly drawn), the ED50 in the assay filed under Mus musculus [2] came to 41 mg/kg. In the assay with Pasteurella multocida, this molecule gave an MIC of 0.2 µg/mL (≈ 0.305 µM).
Consider `CC[C@H]1OC(=O)CC(O)[C@H](C)[C@@H](O[C@@H]2O[C@H](C)C[C@H](N(C)C)[C@H]2O)[C@@H](CCN(CCCN(C)C)C(=O)CN)C[C@@H](C)C(=O)/C=C/C(C)=C/[C@@H]1C` (stereo partly drawn), for which the ED50 in the assay listed under Mus musculus [2] came to 4 mg/kg. In the assay with Pasteurella multocida, this molecule showed an MIC of 0.78 µg/mL (≈ 1.1 µM).
Taken in the same sequence, the figures for `CC[C@H]1OC(=O)CC(O)[C@H](C)[C@@H](O[C@@H]2O[C@H](C)C[C@H](N(C)C)[C@H]2O)[C@@H](CCN(C)CCCN(C)C(=O)CNC)C[C@@H](C)C(=O)/C=C/C(C)=C/[C@@H]1C` (stereo partly drawn) were 6 mg/kg and 0.39 µg/mL (≈ 0.539 µM).
Taken in the same sequence, the figures for `CC[C@H]1OC(=O)CC(O)[C@H](C)[C@@H](O[C@@H]2O[C@H](C)C[C@H](N(C)C)[C@H]2O)[C@@H](CCN(C)CCN(C)C(=O)CN)C[C@@H](C)C(=O)/C=C/C(C)=C/[C@@H]1C` (stereo partly drawn) were 4 mg/kg and 0.2 µg/mL (≈ 0.288 µM).
Take `CC[C@H]1OC(=O)[C@H](C)[C@@H](O[C@H]2C[C@@](C)(OC)[C@@H](O)[C@H](C)O2)[C@H](C)[C@@H](O[C@@H]2O[C@H](C)C[C@H](N(C)C)[C@H]2O)[C@](C)(O)C[C@@H](C)CN(C)[C@H](C)[C@@H](O)[C@]1(C)O` [AZITHROMYCIN]: the ED50 in the assay listed under Mus musculus [1] was 16 mg/kg. Also, in the assay with Pasteurella multocida, 0.05 µg/mL (≈ 0.0668 µM) was the least that counted as inhibitory (MIC).
